{
  "source": "patent US20230250428A1",
  "about": "“Method and composition for early detection of malignancies” (Alliance of Cardiovascular Researchers, priority 2022, published 2023)",
  "key": {"4IC cells": {"tested_on": "4IC cells", "assay": "Cell cycle profile of 4IC TNBC cells with TRAF3IP2 knockdown and/or Paclitaxel", "assay_type": "cell-based, human", "settings": "4IC cells in vitro, vs 4ICControl shRNA", "description": "FIG. 7. […] Cell cycle profiles of 4ICControl shRNA, 4ICControl shRNA+Paclitaxel, 4ICTRAF3IP2 KD and 4ICTRAF3IP2 KD+Paclitaxel (A-D).\nPaclitaxel has been previously shown to arrest cell cycle progression at the G2/M phase, resulting in apoptosis."}, "4IC tumors": {"tested_on": "4IC tumors", "assay": "Effect of targeting TRAF3IP2 on chemoresistance in vivo (4IC tumors, Paclitaxel combination)", "set-up": "species or system mice", "settings": "vs SCR-AO group", "experimental": "FIG. 16. Effect of targeting TRAF3IP2 on chemoresistance in vivo. Tumors were induced using 4IC cells (n=6 animals/group), and mice were treated with one of the following: SCR-AO, SCR-AO+Paclitaxel, TRAF3IP2-AO, or TRAF3IP2-AO+Paclitaxel. Animals in the 4IC SCR-AO group were euthanized by day 28 due to increased tumor […]. Paclitaxel reduced tumor volume by 42% and TRAF3IP2 targeting reduced tumor size by 78%.\nAt first, we induced tumors using wild type 4IC cells and a similar set up described in FIG. 12. After tumor induction, each group was treated with one of the following: SCR-AO, SCR-AO and Paclitaxel, TRAF3IP2-AO, or TRAF3IP2-AO and Paclitaxel. Animals in the SCR-AO group had to be euthanized by day 28 due to increased tumor burden. Paclitaxel reduced tumor volume by 42% and TRAF3IP2 targeting reduced tumor size by 78%."}},
  "data": [
    {"smiles": "CC(=O)O[C@H]1C(=O)[C@@]2(C)[C@H]([C@H](OC(=O)c3ccccc3)[C@]3(O)C[C@H](OC(=O)[C@H](O)[C@@H](NC(=O)c4ccccc4)c4ccccc4)C(C)=C1C3(C)C)[C@]1(OC(C)=O)CO[C@@H]1C[C@@H]2O", "note": "[Paclitaxel]", "values": [
      {"measurement": "increase in the proportion of cells in G2", "setting": "4IC cells", "result": 23, "unit": "%"},
      {"measurement": "reduction of tumor volume", "setting": "4IC tumors", "result": 42, "unit": "%"}
    ]}
  ]
}
